According to publication PMC10498496, “Design and Synthesis of Poly(2,2′-Bipyridyl) Ligands for Induction of Cell Death in Cancer Cells: Control of Anticancer Activity by Complexation/Decomplexation with Biorelevant Metal Cations” (Inorganic Chemistry, 2023):
Like-named read-outs stand apart in the source and are kept apart here. Marks after values point to notes of the source that are not given here.

Assays:
[1] = UV/vis absorption titration, apparent stability constant with Fe^2+; format: binding; conditions: ligand 30 μM, DMSO/30 mM HEPES pH 7.4 (7/3), 37 °C, approximate, assuming 1:1 complexation (1:2 complex)
Text: (§1) Although simple comparison of the stability of metal complexes is difficult due to the different units for 1:1 complexation (M^–1) and 1:2 complexation (M^–2), it is likely that the thermodynamic stability of Co^2+-(1)2 and Fe^2+-(1)2 complexes are similar to that of Zn^2+-1, Ni^2+-1, and Cu^2+-1 complexes.[40]
(§2) All reagents and solvents were purchased at the highest commercial quality and were used without further purification. Anhydrous DMF was obtained by distillation from calcium hydride. All aqueous solutions were prepared using deionized and distilled water. Melting points were measured using a Yanaco MP-J3 Micro Melting Point apparatus and are uncorrected. UV/vis absorption spectra were recorded on a JASCO V-630 spectrophotometer at 37 °C. […] The apparent stability constants of metal–ligand complexes (Ks) were calculated by using the Bind Works 1.0 software provided by CSC (Calorimetry Science Corp.), an interactive PC software for the analysis of Binding Isotherms on Isothermal Titration Calorimeters (ITCs), to which the change in absorption values obtained by the UV/vis absorption titrations are input.[62] IR spectra were measured with a PerkinElmer FT-IR spectrophotometer (Spectrum 100) at room temperature. ^1H (300 and 400 MHz) NMR spectra were recorded on a JEOL Always 300 spectrometer and a JEOL Always 400 spectrometer, respectively. […]

[2] = UV/vis absorption titration, apparent stability constant with Zn^2+; format: binding; conditions: 37 °C, 1:1 complex
Method: (§3) All reagents and solvents were purchased at the highest commercial quality and were used without further purification. Anhydrous DMF was obtained by distillation from calcium hydride. All aqueous solutions were prepared using deionized and distilled water. Melting points were measured using a Yanaco MP-J3 Micro Melting Point apparatus and are uncorrected. UV/vis absorption spectra were recorded on a JASCO V-630 spectrophotometer at 37 °C. The UV/vis absorption titrations of 1 with metal ions were carried out by addition of 10 mM solutions of Zn(NO3)2, NiSO4, Co(NO3)2, Fe(NO3)2, and Al(NO3)3 in H2O and 10 mM solutions of Cu(NO3)2 in DMSO. The apparent stability constants of metal–ligand complexes (Ks) were calculated by using the Bind Works 1.0 software provided by CSC (Calorimetry Science Corp.), an interactive PC software for the analysis of Binding Isotherms on Isothermal Titration Calorimeters (ITCs), to which the change in absorption values obtained by the UV/vis absorption titrations are input.[62] IR spectra were measured with a PerkinElmer FT-IR spectrophotometer (Spectrum 100) at room temperature. ^1H (300 and 400 MHz) NMR spectra were recorded on a JEOL Always 300 spectrometer and a JEOL Always 400 spectrometer, respectively. Luminescence imaging studies were performed using a fluorescent microscope (Biorevo, BZ-9000, Keyence). […]

[3] = UV/vis absorption titration, apparent stability constant with Al^3+; format: binding; conditions: ligand 30 μM, DMSO/30 mM HEPES pH 7.4, I = 0.1 (NaNO3) (7/3), 37 °C
Text: as §1, §2

[4] = UV/vis absorption titration, apparent stability constant with Cu^2+; format: binding; conditions: ligand 30 μM, DMSO/30 mM HEPES pH 7.4, I = 0.1 (NaNO3) (7/3), 37 °C, 1:1 complex
Method: as §3

[5] = UV/vis absorption titration, apparent stability constant with Co^2+; format: binding; conditions: ligand 30 μM, DMSO/30 mM HEPES pH 7.4 (7/3), 37 °C, approximate, assuming 1:1 complexation (1:2 complex)
Text: as §1, §2

[6] = UV/vis absorption titration, apparent stability constant with Ni^2+; format: binding; conditions: 37 °C, 1:1 complex
Method: as §3

[7] = tested on: Jurkat cells; assay: MTT assay of Jurkat cells, effect of metal ions and incubation time on cytotoxicity of ligands; format: cell-based, human; conditions: Homo sapiens, Jurkat, no metal
Method: Next, we examined the effect of complexation of 1, 2, BAPTA, and BAPTA-AM with metal ions such as Cu(NO3)2, Zn(NO3)2, FeSO4, Co(NO3)2, and NiSO4 on their cytotoxicity against Jurkat cells. Mixture of ligands and metal ions were incubated for 1 h at 37 °C, and added to Jurkat cells for incubation for 12, 24, and 48 h at [ligand] = 0.78–25 μM and [M^2+] = 1.71–37.5 μM ([ligand]: [M^2+] = 1:1.5). After that, MTT assays were carried out, as shown in Figure S3 of the Supporting Information.
IMR-90 cells in DMEM medium with 10% FBS (1.5 × 10^5 cells/mL) were seeded in to 96 well plates and incubated for 24 h at 37 °C, MTT assays with poly(bpy) ligands and their metal complexes (0–100 μM), cisplatin (0–100 μM), and actinomycin D (0–10 μM) were performed following the same procedure described above. These experiments were carried out at least three times. • (b) MTT assay in the presence of a caspase inhibitor. Jurkat cells were pre-treated with Z-VAD-fmk (15 μM) for 3 h, a general caspases inhibitor, followed by the treatment with 1 (1 μM), BABTA-AM (12.5 μM) and cisplatin (50 μM), respectively, for 24 h, and then MTT assay was carried out as described above. • (c) For evaluation of the effect of metal ions on the cytotoxicity of 1, 2, BAPTA, and BAPTA-AM, these ligands were incubated with metal ions such as Cu(NO3)2, Zn(NO3)2, FeSO4, Co(NO3)2, and NiSO4 for 1 h, respectively, and added to Jurkat cells. The whole mixtures were incubated for 12, 24, and 48 h at [ligand] = 0.78–25 μM and at [M^2+] = 1.71–37.5 μM ([ligand]/[M^2+] = 1:1.5). The MTT assays were conducted as described above.

[8] = ligand 30 μM, DMSO/30 mM HEPES pH 7.4, I = 0.1 (NaNO3) (7/3)

In the case of c1ccc(-c2ccc(OCc3cc(COc4ccc(-c5ccccn5)nc4)cc(COc4ccc(-c5ccccn5)nc4)c3)cn2)nc1 [compound 1, 1,3,5-Tris(([2,2′-Bipyridin]-5-yloxy)methyl)benzene], the “apparent stability constant log Ks with Fe(NO3)2” value [1] is reported as >5.5 ^b (1:2 complex), the Kd ([2]; DMSO/30 mM HEPES pH 7.4 (7/3), read-out: dissociation constant Kd (= 1/Ks) of Zn^2+ complex) is reported as 0.28 ± 0.01 µM and the “apparent stability constant log Ks with Zn(NO3)2” value [2, 8] is reported as 6.56 ± 0.02 (1:1 complex). The “apparent stability constant log Ks with Al(NO3)3” value [3] was <1, the “apparent stability constant log Ks with Cu(NO3)2” value [4] was 7.29 ± 0.02 (1:1 complex) and the “apparent stability constant log Ks with Co(NO3)2” value [5] was >6 ^b (1:2 complex). For the same compound, the Kd ([6]; DMSO/30 mM HEPES pH 7.4 (7/3), read-out: dissociation constant Kd (= 1/Ks) of Ni^2+ complex) was 0.61 ± 0.02 µM, the “apparent stability constant log Ks with NiSO4” value [6, 8] was 6.21 ± 0.01 (1:1 complex) and the EC50 ([7]; incubation 12 h (Figure 9), read-out: EC50 against Jurkat cells, metal-free ligand) was ~9 µM. For the same compound, the EC50 ([7]; incubation 24 h (Figure 9b), read-out: EC50 against Jurkat cells, ligand alone) was 0.137 µM and the EC50 ([7]; incubation 48 h (Figure 9, S4), read-out: EC50 against Jurkat cells, metal-free ligand) was ~0.06 µM.
